According to patent US10894777B2, “TG2 inhibitor piperazine compounds and uses thereof” (UNIVERSITY OF OTTAWA, priority 2016, dated 2021):

Columns and labels:
Format in all cases: cell-based, human
[1] = system: TS565 neurospheres; assay: Neurosphere growth, TS565 (proneural); details: 25 μM, 2 weeks
Text: Neurosphere cultures. TS543, TS565 and TS676, which represent the mesenchymal, proneural and classical glioblastoma subtypes respectively, based on transcriptomic and genomic analysis, were obtained from C. Brennan through the Monoclonal Antibody Core Facility at Memorial Sloan Kettering Cancer Center (Brennan, C. et al., PLoS One 4(11):e7752, 2009; Pyonteck, S. M. et al., Nature Med. 19(10):1264-72, 2013; Rohle, D. et al., Science 340(6132):626-30, 2013) and maintained in NeuroCult™ NS-A Proliferation Kit (Human) (Stem Cell Technologies) according to manufacturer's instructions. (NeuroCult Medium was supplemented with 20 ng/mL FGF, 50 ng/mL EGF and 0.0002% Heparin). To prevent neurosphere attachment to the bottom of the cell culture plates, Poly 2-hydroxyethyl methacrylate (PHM) was used. 6-well plates were coated with 1 mL/well of 1% PHM in ethanol (w/v). The plates were air dried in a sterile environment overnight and washed once with PBS and they were kept in the fridge in a sterile environment until use. For passaging, neurospheres were triturated according to instructions and 5,000 cells were seeded in each well in 2 mL medium. For treatments with TG2 inhibitors, cells were inoculated in medium containing 25 μM TG2 inhibitor or DMSO control. 200 μL of medium containing the 25 μM TG2 inhibitor or DMSO was added every other day. At the end of 2 weeks, 20-50 random microscopic images were captured for each group. The average volume of each sphere image was determined using Image J by a person blinded for neurosphere lines and treatments and volumes were calculated from the area data and used for comparison.

[2] = system: TG2 fusion protein mCer-TG2-YFP; assay: Fluorescence lifetime imaging (FLIM) of mCer-TG2-YFP conformation, SCC-13 cells; details: NC9, VA4, VA5 0-20 μM 24 or 48 h; Cp4d 0-10 μM 48 h
Protocol: We monitored the impact of each inhibitor on intracellular TG2 structure using FLIM (Fluorescence Lifetime Imaging Microscopy). FLIM is a quantitative method of assessing fluorescence lifetime that measures energy transfer between donor and accept probes Fluorescence lifetime is measured in nanoseconds and a short lifetime correlates with close contact between probes (FIG. 29B). An advantage of this method is that fluorescent lifetimes are independent of probe concentration. In the present experiments, we expressed in cells a TG2 fusion protein in which the donor probe (mCER) is fused to the N-terminus and the acceptor probe (YFP) at the C-terminus (FIG. 29B). mCER and YFP comprise an ideal donor/acceptor pair; the donor probe is excited by laser illumination and energy transfer to the acceptor is monitored. The fluorescent lifetime is shorter when TG2 is in the closed conformation which brings mCER and YFP close together. SCC-13 cells were electroporated with empty vector, mCER-TG2 or mCER-TG2-YFP.
Fluorescence lifetime imaging. Fluorescence lifetime images were acquired using FLIM system (Alba 5 from ISS). […] Emission was observed through bandpass filter 480/35 nm (Chroma Technology) and detected by a photomultiplier H7422-40 (Hamamatsu). FLIM data were acquired using time-domain modality (SPC-830 TCSPC module from Becker and Hickl GmbH). […] To account for intensity heterogeneity within single intensity images, two to five consecutive scans were acquired and summed to build FLIM intensity image for lifetime analysis. […] FLIM data were analyzed using VistaVision Suite software (Vista v.213 from ISS). Lifetime images were generated by fitting data using single exponential intensity decay model. Intensity threshold for lifetime analysis was set of at least 3-fold above the intensity of dim cells and fitting procedure was performed for binned pixels at level of 3 (7×7 pixels). Lifetime distribution within image is represented with histogram showing pixel frequency of specific lifetime. The average lifetime values with standard deviations were calculated based on all processed pixels in lifetime image. FRET values were calculated according to the formula ET=1−(τDA/τD), where τD is the lifetime of donor (mCer-TG2) and τDA is the lifetime of donor-acceptor pair (mCer-TG2—YFP).

[3] = system: GBM cells (U87 and T98G); assay: EdU incorporation assay; details: 24 h
Protocol: EdU Incorporation Assay. After treatment of cells seeded in PolyD-Lys coated coverslips, half of the media was replaced with 10 μM EdU in 10% FBS MEM. After 90 min, cells were fixed with 4% PFA and permeabilized with 0.5% Triton X-100. Detection of EdU was performed as directed in the Click-iT EdU Alexa 647 kit (Life Technologies). 1:2000 Hoechst dilution was used to stain nuclei. Randomized pictures were taken for each group and a person blinded for the treatments counted the EdU and Hoechst positive cells.

[4] = system: U87 cells; assay: Agarose colony formation assay, U87 cells; details: 10 μM, 2 weeks
Protocol: Agarose colony formation assay. Agarose colony formation assay was conducted as described (Horman, S. R. et al., J. Biomol. Screen 18(10):1298-308, 2013; Zhang, K. et al., Tumour Biol. 35(3):2537-48, 2014) using 6-well plates and 5,000 cells in each well. 10 μM NC9 or DMSO was added to every layer at the start of the experiments. 2 mL liquid MEM containing 10 μM NC9 or DMSO was used to cover the agarose and it was changed 3 times a week. Colony growth was monitored every day and at the end of 10-15 days, the colonies were fixed with 4% paraformaldehyde, stained with 0.005% crystal violet, washed with PBS twice and 40 random pictures were taken from each treatment group. A person blinded for the treatments measured the area of the colonies using ImageJ program and the volumes were calculated from the area data under the assumption that the colonies are perfect spheres. The volumes were used to compare the effect of NC9 on colony growth.

Row | Compound | sphere growth, TS565 [1] | fluorescence lifetime of mCer-TG2-YFP [2] | proliferation (EdU incorporation) [3] | colony growth, U87 [4]
1 | C=CC(=O)NCCCC[C@H](NC(=O)OCc1ccccc1)C(=O)NCCOCCOCCNS(=O)(=O)c1cccc2c(N(C)C)cccc12 [NC9] | suppressed sphere growth | markedly increased | slowed down the proliferation | significantly reduced the growth
2 | C=CC(=O)NCCCC[C@H](NC(=O)OCc1ccccc1)C(=O)N1CCN(S(=O)(=O)c2cccc3c(N(C)C)cccc23)CC1 [VA4, (S)-benzyl(6-acrylamido-1-(4-((5-(dimethylamino)naphthalen-1-yl)sulfonyl)piperazin-1-yl)-1-oxohexan-2-yl)carbamate] | suppressed sphere growth | markedly increased | slowed down the proliferation | inhibited colony growth
3 | C=CC(=O)NCCCC[C@H](NC(=O)OCc1ccccc1)C(=O)N1CCN(C(=O)c2cc3ccc(O)cc3oc2=O)CC1 [VA5, (S)-Benzyl(6-acrylamido-1-(4-(7-hydroxy-2-oxo-2H-chromene-3-carbonyl)piperazin-1-yl)-1-oxohexan-2-yl)carbamate] | only mildly suppressive | markedly increased | no effect | promoted it
